# Experimental data taken from patent publication US12421212B2, “Substituted benzenecarboxamides as IL-17A modulators” (DiCE Alpha, Inc., priority 2019, dated 2025).
# Molecular target: T1, IL-17A/A (Homo sapiens, UniProt Q16552)
# T1 construct: purchased Genscript Z03228
# T1 sequence (Q16552 24-155): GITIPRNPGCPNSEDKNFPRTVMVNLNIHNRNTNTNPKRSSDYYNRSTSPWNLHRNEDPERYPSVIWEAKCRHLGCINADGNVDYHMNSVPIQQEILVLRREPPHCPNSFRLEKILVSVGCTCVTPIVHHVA
# Assay: IL-17A/A HEK-Blue Cell Assay
# Type: cell-based
# Settings: HEK-Blue IL-17A reporter cell line, SEAP readout at A630, 20 hours incubation with IL-17A/A; top concentration 10 uM, 1 uM or 0.3 uM
# Protocol: The HEK-Blue IL-17A reporter cell line (Fisher #NC1408637) was used for cell-based IL-17A/A inhibition assays. Cells were grown and prepared for assays according to the manufacturer's instructions. This cell line consists of HEK 293 cells that were designed to expressed IL-17RA, IL-17RC, and the ActI adapter molecule, the combination of which, when stimulated by IL-17A/A activates a NFκB promoter and drives expression of a recombinant Secreted Alkaline Phosphatase (SEAP) geneprotein. Media from the cells is then added to a development reagent (Quanti-Blue Substrate, Fisher #NC9711613), and read at A630.
# Compounds were titrated in DMSO, with a top final compound concentration of 10 uM, 1 uM, or 0.3 uM, and added to the cells immediately before adding IL-17A/A (Genscript #Z03228). The cells, compound, and IL-17A/A were then incubated for 20 hours before media was removed for SEAP analysis. The resulting inhibition curve was then analyzed using Graphpad Prism 7.0, and IC50 values were determined using a 4-parameter nonlinear fit. DMSO was added to a universal final concentration of 0.1% to optimize background.
row,SMILES,IL-17A/A inhibition (pIC50)
1,CCC(=O)N[C@@H](C(=O)N1CCN(C)CC1)[C@@H](C)c1ccc(NC(=O)[C@@H](NC(=O)C(F)(F)C2CC2)C2CCCCC2)c(F)c1 [Compound 242],X2b (compounds were evaluated up to 1 uM and inhibited activity at 1 uM by less than 20%)
2,CCC(=O)N[C@@H](C(=O)N1CCN(C)CC1)[C@@H](C)c1ccc(NC(=O)[C@@H](NC(=O)c2cccn2CC2CC2)[C@H]2CC[C@H](C)CC2)c(F)c1 [Compound 283],A (compounds having a pIC50 of greater than or equal 8 as A)

# Same assay, conditions: HEK-Blue IL-17A reporter cell line, SEAP readout at A630, 20 hours incubation with IL-17A/A; top concentration 10 uM, 1 uM or 0.3 uM; read-out: IL-17A/A inhibition (pIC50) (converted)
row,SMILES,IC50
1,CCC(=O)N[C@@H](C(=O)N1CCN(C)CC1)[C@@H](C)c1ccc(NC(=O)[C@@H](NC(=O)C(F)(F)c2cccc(OC)c2)C2CCCCC2)c(F)c1 [Compound 243],10 to 100 nM
2,CCC(=O)N[C@@H](C(=O)N1CCN(C)CC1)[C@@H](C)c1ccc(NC(=O)[C@@H](NC(=O)C(F)(F)c2ccc3c(c2)OCO3)C2CCCCC2)c(F)c1 [Compound 244],10 to 100 nM
3,CCC(=O)N[C@@H](C(=O)N1CCN(C)CC1)[C@@H](C)c1ccc(NC(=O)[C@@H](NC(=O)C(F)(F)c2ccc3[nH]ncc3c2)C2CCCCC2)c(F)c1 [Compound 245],10 to 100 nM
4,CCC(=O)N[C@@H](C(=O)N1CCN(C)CC1)[C@@H](C)c1ccc(NC(=O)[C@@H](NC(=O)C(F)(F)c2cncc(OC)c2)C2CCCCC2)c(F)c1 [Compound 246],10 to 100 nM
5,CCC(=O)N[C@@H](C(=O)N1CCN(C)CC1)[C@@H](C)c1ccc(NC(=O)[C@@H](NC(=O)c2coc3ccncc23)C2CCCCC2)c(F)c1 [Compound 247],10 to 100 nM
6,CCC(=O)N[C@@H](C(=O)N1CCN(C)CC1)[C@@H](C)c1ccc(NC(=O)[C@@H](NC(=O)c2csc3ccccc23)C2CCCCC2)c(F)c1 [Compound 248],10 to 100 nM
7,CCC(=O)N[C@@H](C(=O)N1CCN(C)CC1)[C@@H](C)c1ccc(NC(=O)[C@@H](NC(=O)c2csc3cnccc23)C2CCCCC2)c(F)c1 [Compound 249],10 to 100 nM
8,CCC(=O)N[C@@H](C(=O)N1CCN(C)CC1)[C@@H](C)c1ccc(NC(=O)[C@@H](NC(=O)c2csc3ncccc23)C2CCCCC2)c(F)c1 [Compound 250],10 to 100 nM
9,CCC(=O)N[C@@H](C(=O)N1CCN(C)CC1)[C@@H](C)c1ccc(NC(=O)[C@@H](NC(=O)C(F)(F)c2cccc(NS(C)(=O)=O)c2)C2CCCCC2)c(F)c1 [Compound 251],10 to 100 nM
10,CCC(=O)N[C@@H](C(=O)N1CCN(C)CC1)[C@@H](C)c1ccc(NC(=O)[C@@H](NC(=O)C(F)(F)C2CCCCC2)C2CCCCC2)c(F)c1 [Compound 252],10 to 100 nM
11,CCC(=O)N[C@@H](C(=O)N1CCN(C)CC1)[C@@H](C)c1ccc(NC(=O)[C@@H](NC(=O)c2ccnn2C(C)C)[C@H]2CC[C@H](C)CC2)c(F)c1 [Compound 253],< 10 nM
12,CCC(=O)N[C@@H](C(=O)N1CCN(C)CC1)[C@@H](C)c1ccc(NC(=O)[C@@H](NC(=O)c2cccn2CC)C2CCCCC2)c(F)c1 [Compound 254],10 to 100 nM
13,CCC(=O)N[C@@H](C(=O)N1CCN(C)CC1)[C@@H](C)c1ccc(NC(=O)[C@@H](NC(=O)c2coc3cc(OC)ccc23)C2CCCCC2)c(F)c1 [Compound 255],10 to 100 nM
14,CCC(=O)N[C@@H](C(=O)N1CCN(C)CC1)[C@@H](C)c1ccc(NC(=O)[C@@H](NC(=O)c2ccnn2C(C)C)C2CCCCC2)c(F)c1 [Compound 256],10 to 100 nM
15,CCC(=O)N[C@@H](C(=O)N1CCN(C)CC1)[C@@H](C)c1ccc(NC(=O)[C@@H](NC(=O)c2conc2CC)C2CCCCCC2)c(F)c1 [Compound 257],< 10 nM
16,CCC(=O)N[C@@H](C(=O)N1CCN(C)CC1)[C@@H](C)c1ccc(NC(=O)[C@@H](NC(=O)c2coc3cc(OC)ccc23)C2CCCCCC2)c(F)c1 [Compound 258],< 10 nM
17,CCC(=O)N[C@@H](C(=O)N1CCN(C)CC1)[C@@H](C)c1ccc(NC(=O)[C@@H](NC(=O)c2csc3ccccc23)C2CCCCCC2)c(F)c1 [Compound 259],< 10 nM
18,CCC(=O)N[C@@H](C(=O)N1CCN(C)CC1)[C@@H](C)c1ccc(NC(=O)[C@@H](NC(=O)C(F)(F)c2cccc(C#N)c2)C2CCCCCC2)c(F)c1 [Compound 260],< 10 nM
19,CCC(=O)N[C@@H](C(=O)N1CCN(C)CC1)[C@@H](C)c1ccc(NC(=O)[C@@H](NC(=O)C(F)(F)c2cncc(C#N)c2)C2CCCCCC2)c(F)c1 [Compound 261],< 10 nM
20,CCC(=O)N[C@@H](C(=O)N1CCN(C)CC1)[C@@H](C)c1ccc(NC(=O)[C@@H](NC(=O)C(F)(F)c2cncc(OC)c2)C2CCCCCC2)c(F)c1 [Compound 262],10 to 100 nM
21,CCC(=O)N[C@@H](C(=O)N1CCN(C)CC1)[C@@H](C)c1ccc(NC(=O)[C@@H](NC(=O)C(F)(F)c2cccc(C#N)c2)C2CCC(F)(F)CC2)c(F)c1 [Compound 263],< 10 nM

row,SMILES,IC50
1,CCC(=O)N[C@@H](C(=O)N1CCN(C)CC1)[C@@H](C)c1ccc(NC(=O)[C@@H](NC(=O)c2conc2CC)[C@H]2CC[C@H](C)CC2)c(F)c1 [Compound 264],10 to 100 nM
2,CCC(=O)N[C@@H](C(=O)N1CCN(C)CC1)[C@@H](C)c1ccc(NC(=O)[C@@H](NC(=O)C(F)(F)c2csc(C)c2)C2CCCCCC2)c(F)c1 [Compound 265],< 10 nM
3,CCC(=O)N[C@@H](C(=O)N1CCN(C)CC1)[C@@H](C)c1ccc(NC(=O)[C@@H](NC(=O)c2coc3c2COC3)C2CCCCCC2)c(F)c1 [Compound 266],< 10 nM
4,CCC(=O)N[C@@H](C(=O)N1CCN(C)CC1)[C@@H](C)c1ccc(NC(=O)[C@@H](NC(=O)C(F)(F)c2cnn(CC)c2)C2CCCCCC2)c(F)c1 [Compound 267],< 10 nM
5,CCC(=O)N[C@@H](C(=O)N1CCN(C)CC1)[C@@H](C)c1ccc(NC(=O)[C@@H](NC(=O)c2conc2C(C)C)C2CCCCCC2)c(F)c1 [Compound 268],< 10 nM
6,CCC(=O)N[C@@H](C(=O)N1CCN(C)CC1)[C@@H](C)c1ccc(NC(=O)[C@@H](NC(=O)c2conc2C2CC2)C2CCCCCC2)c(F)c1 [Compound 269],< 10 nM
7,CCC(=O)N[C@@H](C(=O)N1CCN(C)CC1)[C@@H](C)c1ccc(NC(=O)[C@@H](NC(=O)c2nonc2CC)C2CCCCCC2)c(F)c1 [Compound 270],< 10 nM
8,CCC(=O)N[C@@H](C(=O)N1CCN(C)CC1)[C@@H](C)c1ccc(NC(=O)[C@@H](NC(=O)c2ccnn2CC2CC2)C2CCCCCC2)c(F)c1 [Compound 271],< 10 nM
9,CCC(=O)N[C@@H](C(=O)N1CCN(C)CC1)[C@@H](C)c1ccc(NC(=O)[C@@H](NC(=O)c2ccoc2C(C)C)C2CCCCCC2)c(F)c1 [Compound 272],< 10 nM
10,CCC(=O)N[C@@H](C(=O)N1CCN(C)CC1)[C@@H](C)c1ccc(NC(=O)[C@@H](NC(=O)c2ccnn2C2CCCC2)C2CCCCCC2)c(F)c1 [Compound 273],< 10 nM
11,CCC(=O)N[C@@H](C(=O)N1CCN(C)CC1)[C@@H](C)c1ccc(NC(=O)[C@@H](NC(=O)c2cccn2C(C)C)C2CCCCCC2)c(F)c1 [Compound 274],< 10 nM
12,CCC(=O)N[C@@H](C(=O)N1CCN(C)CC1)[C@@H](C)c1ccc(NC(=O)[C@@H](NC(=O)c2cccn2CC)C2CCCCCC2)c(F)c1 [Compound 275],< 10 nM
13,CCC(=O)N[C@@H](C(=O)N1CCN(C)CC1)[C@@H](C)c1ccc(NC(=O)[C@@H](NC(=O)C(F)(F)c2csc(C)c2)[C@H]2CC[C@H](C)CC2)c(F)c1 [Compound 276],10 to 100 nM
14,CCC(=O)N[C@@H](C(=O)N1CCN(C)CC1)[C@@H](C)c1ccc(NC(=O)[C@@H](NC(=O)c2coc3c2COC3)[C@H]2CC[C@H](C)CC2)c(F)c1 [Compound 277],< 10 nM
15,CCC(=O)N[C@@H](C(=O)N1CCN(C)CC1)[C@@H](C)c1ccc(NC(=O)[C@@H](NC(=O)c2nonc2CC)[C@H]2CC[C@H](C)CC2)c(F)c1 [Compound 278],< 10 nM
16,CCC(=O)N[C@@H](C(=O)N1CCN(C)CC1)[C@@H](C)c1ccc(NC(=O)[C@@H](NC(=O)c2conc2C2CC2)[C@H]2CC[C@H](C)CC2)c(F)c1 [Compound 279],10 to 100 nM
17,CCC(=O)N[C@@H](C(=O)N1CCN(C)CC1)[C@@H](C)c1ccc(NC(=O)[C@@H](NC(=O)c2cccn2CC)[C@H]2CC[C@H](C)CC2)c(F)c1 [Compound 280],10 to 100 nM
18,CCC(=O)N[C@@H](C(=O)N1CCN(C)CC1)[C@@H](C)c1ccc(NC(=O)[C@@H](NC(=O)C(F)(F)c2cncc(OC)c2)[C@H]2CC[C@H](C)CC2)c(F)c1 [Compound 281],10 to 100 nM
19,CCC(=O)N[C@@H](C(=O)N1CCN(C)CC1)[C@@H](C)c1ccc(NC(=O)[C@@H](NC(=O)C(F)(F)c2cccc(C#N)c2)[C@H]2CC[C@H](C)CC2)c(F)c1 [Compound 282],< 10 nM
20,CCC(=O)N[C@@H](C(=O)N1CCN(C)CC1)[C@@H](C)c1ccc(NC(=O)[C@@H](NC(=O)c2conc2C(C)C)[C@H]2CC[C@H](C)CC2)c(F)c1 [Compound 284],< 10 nM
21,CCC(=O)N[C@@H](C(=O)N1CCN(C)CC1)[C@@H](C)c1ccc(NC(=O)[C@@H](NC(=O)C(F)(F)c2ccc(OC)nc2)[C@H]2CC[C@H](C(F)(F)F)CC2)c(F)c1 [Compound 285],10 to 100 nM
